From patent publication US20190314256A1, “COSMETIC BASE INCLUDING AMIDE ALCOHOL ESTER, AND COSMETIC” (Kokyu Alcohol Kogyo Co., Ltd., priority 2016, published 2019)

Tests used:
Type in all cases: physicochemical
[1] = Solubility and gelling ability with each liquid; critical gelation concentration by sample tube inversion method; design: key: S: Soluble; I: Insoluble/separation; G: Gel; T: Thickening; EG: Emulsion gel
Method: The amide alcohol or ester of amide alcohol was heated and mixed with each liquid, and the critical gelation concentration was measured by sample tube inversion method.
Sample tube used: used tube: Maruemu screw tube No. 7 (trunk diameter 35 mm total length 78 mm)

[2] = as above; details: physical form of the ester
[3] = Pigment dispersibility (wet point WP and flow point FP); details: titanium oxide, zinc oxide, iron oxide
Text: 1. Weigh 1.5 g of a pigment in mortar. 2. Gradually add an oil dropwise and knead with a pestle. 3. Check the weight of the oil at each point of WP and FP. 4. Calculate WP and FP per 100 g of the pigment. WP: Wet point (the lower the wet point, the better the wettability of the pigment.) FP: Flow point (the lower the flow point, the better the dispersibility of the pigment.)

Viscosity = assay: Viscosity

Row | Compound | solubility and gelling ability ([1]; Ethanol) | solubility and gelling ability ([1]; Glycerin) | solubility and gelling ability ([1]; Octyldodecanol) | solubility and gelling ability ([1]; Octyldodecyl myristate) | solubility and gelling ability ([1]; Squalane) | solubility and gelling ability ([1]; Triethylhexanoin) | solubility and gelling ability ([1]; Water) | Property [2] | pigment dispersibility [3] | viscosity (Viscosity)
1 | CCCCCCCCCCCC(=O)OCCCC(=O)NC1CCCCC1 [CHBA-L, N-cyclohexylbutyramide-4-lauric acid ester] | S | I | G | G | G | G | I | Solid |  | 
2 | N-2 ethylhexylbutyramide 4-isostearic acid ester [EHBA-IS] |  |  |  |  |  |  |  |  | excellent pigment dispersibility | approximately 270 mPa·s
3 | N-cyclohexylbutyramide-4-isostearic acid ester [CHBA-IS] |  |  |  |  |  |  |  |  | excellent pigment dispersibility | approximately 230 mPa·s
4 | CCCCCCCCCCCC(=O)OCCCC(=O)NCC(CC)CCCC (centres unmarked) [EHBA-L, N-2 ethylhexylbutyramide-4-lauric acid ester] | S | I | S | S | I | I | I | Solid |  | 

Continued, values first:

Row | solubility and gelling ability ([1]; Ethanol) | solubility and gelling ability ([1]; Glycerin) | solubility and gelling ability ([1]; Octyldodecanol) | solubility and gelling ability ([1]; Octyldodecyl myristate) | solubility and gelling ability ([1]; Squalane) | solubility and gelling ability ([1]; Triethylhexanoin) | solubility and gelling ability ([1]; Water) | Property [2] | pigment dispersibility [3] | viscosity (Viscosity) | Compound
5 | G | I | G | G | G | G | I | Solid |  |  | CCCCCCCCCCCCCC(=O)OCCCC(=O)NCCCCCCCCCCCC [LBA-M, N-laurylbutyramide-4-myristic acid ester]
6 | G | I | G | G | G | G | I | Solid |  |  | CCCCCCCCCCCCNC(=O)CCCOC(=O)CCCCCCCCCCC [LBA-L, N-laurylbutyramide-4-lauric acid ester]
7 | S | I | G | G | G | G | I | Solid |  |  | CCCCCCCCCCCC(=O)OCCCC(=O)NCCCCCCCC [OBA-L, N-octylbutyramide-4-lauric acid ester]
